Assay results published in US20250353891A1 (MEDIMMUNE LIMITED, priority 2022, published 2025).
“And” between values parts separate entries of the source, which are not always exact repeats. Equal entries are not always repeated. Starred links: 1 amine or outer side, 2 acyl side, 3 side chain; linkers in the order of their positions; H or OH if unused. Non-standard residues stand in square brackets, D forms with d. Residues, ends and D or L forms follow the SMILES beside them. Groups on a side chain read outwards from the residue. *: point of attachment. C20 diacid = O=C(O)CCCCCCCCCCCCCCCCCCC(=O)*; C18 diacid = O=C(O)CCCCCCCCCCCCCCCCC(=O)*; γGlu = O=C(O)[C@H](CCC(=O)[*:2])N[*:1]; αMeF = C[C@](N)(Cc1ccccc1)C(=O)O; AEEA = NCCOCCOCC(=O)O; Aib = CC(C)(N)C(=O)O

What was measured:
[1] = test system: GLP-1R knockout (KO) mice; assay: Glucose change in GLP-1R knockout mice; type: in vivo, mouse; details: GLP-1R KO mice, s.c., 60 min vs 0 min, no somatostatin pretreatment
Summary of the method: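 GLP-1R knockout mice (n=4-8/group, sorted by body weight) were fasted 2 h, and in some studies pretreated with octreotide 10 mg/kg 30 min before peptide injection. Mice were reused up to 3 times with at least 1-week wash-out.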

[2] = target: human GLP-1 receptor (hGLP-1R) (Homo sapiens, UniProt P43220); assay: cAMP production (HTRF) in CHO cells expressing hGLP-1R; type: cell-based; design: expressed in transfected cells; details: for EC50: Table 6, peptides modified at position 17, cAMP in CHO hGLP-1R cells, geometric mean, read-out: hGLP-1R EC50; for % Relative Potency Ratio: Table 6, % GLP-1R activity relative to GLP-1 / % GlucR activity relative to glucagon
Summary of the method: (§1)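 Potency values represent EC50 from 4-parameter logistic curves of HTRF % Delta F signal. Receptor-expressing CHO cells (hGCGR 2×10^5 cells/mL, hGLP-1R 1×10^5 cells/mL) were exposed for 30 min at room temperature before two-step cAMP detection.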

[3] = Mouse acute food intake study; type: in vivo; details: male C57Bl/6 mice, s.c., cumulative food intake at 24 hr vs vehicle
Summary of the method: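 Peptide or vehicle went subcutaneously (5 mL/kg) to 6-8 h-fasted male C57Bl/6 mice shortly before the dark phase, with groups balanced on body weight and 24-hour intake. Cumulative food consumption was derived from 48 h of automated BioDaq monitoring with free food and water access.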

[4] = in vivo; details: 10 nmol/kg; for half-life: iv
Excerpt: (§2) Selected test peptides (n=8) were profiled for pharmacokinetic (PK) properties in the mouse after single intravenous (i.v.) or subcutaneous (s.c.) dose. A subset (n=4) meeting the acceptance criteria was subsequently profiled in the dog (single i.v. dose) and non-human primate (single i.v. and s.c. dose). […] Low-binding plasticware containers were used during preparation and sample handling to avoid non-specific binding.
After dosing, PK samples were collected from the dorsal metatarsal vein. Blood of each sample was transferred into plastic micro centrifuge tubes containing EDTA-K2, inverted several times for proper mixing of contents and then placed on wet ice. The blood samples were centrifuged at 4° C. to obtain plasma and stored at −75° C. prior to analysis.
(§3) Samples analysis: Samples were analyzed by LC-MS/MS. Calibration standards were injected at the beginning and end of each batch and the determined concentration for each prepared standard was used to construct a calibration curve. Plasma and dose aliquot sample concentrations were determined from the plasma calibration curve.
(§4) Data analysis: Plasma concentration data was analyzed by non-compartmental analysis (NCA) using Phoenix Winnonlin v. 8.3.3.33. Linear trapezoidal rule was used for increasing values and log trapezoidal rule was used for decreasing values, applying uniform weighting for lambda_z calculations. Subcutaneous bioavailability was calculated as the ratio AUC(s.c.)0-inf/AUC(i.v.)0-inf. Reported values (Table 18) represent the mean of the individual estimates.

[5] = target: human glucagon receptor (hGCGR) (Homo sapiens, UniProt P47871); assay: cAMP production (HTRF) in CHO cells expressing hGCGR; type: cell-based; design: expressed in transfected cells; details: Table 6, peptides modified at position 17; cAMP in CHO hGCGR cells; geometric mean; read-out: hGluc-R EC50
Summary of the method: as §1

[6] = test system: wildtype (WT) mice; assay: Glucose change in wildtype mice; type: in vivo, mouse; details: s.c., 60 min vs 0 min, no somatostatin pretreatment
Summary of the method: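 Wildtype mice aged 8-14 weeks, fasted 2 h, sometimes pre-treated with octreotide 10 mg/kg 30 min before peptide injection. Blood glucose by glucometer at -30, 0, 30, 60, 120, 180, 240 and 360 min; n=4-8/group, mice reused up to 3 times with ≥1 week wash-out.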

[7] = in vivo; details: male, cynomolgus monkey, 10 nmol/kg
Excerpt: as §2
Non-human primate: PK was studied in non-naïve male cynomolgus monkeys. After dosing, PK samples were collected from the femoral vein. Blood of each sample was transferred into plastic micro centrifuge tubes containing EDTA-K2, inverted several times for proper mixing of contents and then placed on wet ice. The blood samples were centrifuged under refrigerated (2° C. to 8° C.) conditions within 30 minutes following sample collection to obtain plasma and stored at −60° C. to −90° C.° C. prior to analysis.
as §3, §4

[8] = in vivo; details: male, Beagle, dog, iv, 10 nmol/kg
Excerpt: as §2
Blood of each sample was transferred into plastic micro centrifuge tubes containing EDTA-K2, inverted several times for proper mixing of contents and then placed on wet ice.
as §3, §4

[9] = Proteolytic resistance to FasSSGF containing porcine pancreatic pepsin; type: in vitro ADME; details: pig, simulated gastric fluid
Summary of the method: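 Peptide (250 μM stock in FasSSGF) mixed 1:1 with porcine pepsin stock (0.5 mg/mL in FasSSGF) and held at 37° C; samples at 0, 5, 10, 15 and 30 min quenched in ammonium bicarbonate, pH 8. Intact peptide remaining estimated by RP-HPLC peak area, UV 210 nm.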

[10] = target: T1, recombinant Neprilysin (Homo sapiens, UniProt P08473); assay: Proteolytic resistance to neprilysin; type: in vitro ADME; details: pH 8.3
T1 construct: purchased R&D Systems 1182-ZNC-010
Summary of the method: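 Peptide stock (~250 μM) mixed 1:1 with neprilysin stock (100 μg/mL) in Tris/NaCl/NaHCO3 buffer, pH 8.3, at 37° C. Aliquots at 0, 30 min, 1, 2, 4, 24 h quenched in TFA/acetonitrile. Intact peptide estimated by RP-HPLC peak area at 210 nm.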

[11] = Proteolytic resistance to FasSSIF/Pancreatin; type: in vitro ADME; details: simulated intestinal fluid
Summary of the method: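 Peptide (1.0 mg) in pre-warmed FasSSIF, proteolysis started with fresh FasSSIF/USP Pancreatin and held at 37 °C. Aliquots at 0, 5, 10, 15, 30 min quenched in 10% TFA; remaining intact peptide estimated by RP-HPLC peak area, UV 210 nm.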

T1 sequence (P08473 52-750 limits assumed): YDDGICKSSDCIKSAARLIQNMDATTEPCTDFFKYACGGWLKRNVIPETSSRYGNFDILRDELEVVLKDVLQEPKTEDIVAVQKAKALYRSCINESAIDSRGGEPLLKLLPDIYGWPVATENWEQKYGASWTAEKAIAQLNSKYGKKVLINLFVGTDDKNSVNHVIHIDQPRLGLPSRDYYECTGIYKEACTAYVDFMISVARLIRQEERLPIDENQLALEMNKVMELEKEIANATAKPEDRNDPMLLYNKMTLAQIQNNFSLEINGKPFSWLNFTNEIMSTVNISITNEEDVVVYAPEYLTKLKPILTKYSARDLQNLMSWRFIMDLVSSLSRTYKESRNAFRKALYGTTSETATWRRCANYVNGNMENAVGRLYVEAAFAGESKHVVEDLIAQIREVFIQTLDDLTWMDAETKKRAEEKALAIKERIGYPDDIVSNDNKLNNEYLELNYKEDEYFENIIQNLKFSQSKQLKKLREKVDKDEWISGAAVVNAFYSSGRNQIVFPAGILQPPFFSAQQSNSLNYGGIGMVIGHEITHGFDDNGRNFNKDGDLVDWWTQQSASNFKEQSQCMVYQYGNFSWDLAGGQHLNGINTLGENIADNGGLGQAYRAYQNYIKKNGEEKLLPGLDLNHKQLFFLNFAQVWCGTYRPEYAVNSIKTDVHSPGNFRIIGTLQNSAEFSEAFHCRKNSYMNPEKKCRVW
human GLP-1 receptor (hGLP-1R), sequence (P43220 24-463): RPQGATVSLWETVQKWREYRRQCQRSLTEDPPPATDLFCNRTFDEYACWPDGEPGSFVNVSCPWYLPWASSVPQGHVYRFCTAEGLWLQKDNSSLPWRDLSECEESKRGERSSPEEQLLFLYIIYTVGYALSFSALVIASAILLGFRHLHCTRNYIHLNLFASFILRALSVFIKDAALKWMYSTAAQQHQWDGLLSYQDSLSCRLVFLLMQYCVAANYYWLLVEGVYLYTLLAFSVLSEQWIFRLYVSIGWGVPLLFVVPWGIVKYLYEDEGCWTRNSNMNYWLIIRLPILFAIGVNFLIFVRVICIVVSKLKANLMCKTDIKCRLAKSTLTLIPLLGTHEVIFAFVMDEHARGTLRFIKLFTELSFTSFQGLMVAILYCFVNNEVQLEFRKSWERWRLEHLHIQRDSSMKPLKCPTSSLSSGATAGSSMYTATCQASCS
human glucagon receptor (hGCGR), sequence (P47871 26-477): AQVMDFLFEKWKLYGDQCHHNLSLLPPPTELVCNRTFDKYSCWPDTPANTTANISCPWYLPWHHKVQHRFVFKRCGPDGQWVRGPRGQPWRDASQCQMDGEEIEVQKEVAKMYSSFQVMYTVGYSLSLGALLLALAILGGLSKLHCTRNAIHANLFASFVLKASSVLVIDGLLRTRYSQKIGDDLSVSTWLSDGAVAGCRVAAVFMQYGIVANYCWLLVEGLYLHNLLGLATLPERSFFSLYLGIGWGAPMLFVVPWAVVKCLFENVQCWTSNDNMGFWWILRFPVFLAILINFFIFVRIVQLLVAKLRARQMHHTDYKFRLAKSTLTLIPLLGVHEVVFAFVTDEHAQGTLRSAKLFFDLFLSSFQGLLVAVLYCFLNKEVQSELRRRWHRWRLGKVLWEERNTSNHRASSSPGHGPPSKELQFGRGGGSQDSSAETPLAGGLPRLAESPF

Row | SMILES | GLP-1R KO % glucose change - 60 min ([1]; 10 nmol/kg) | GLP-1R KO % glucose change - 60 min ([1]; 30 nmol/kg) | EC50 [2] | % Relative Potency Ratio [2] | 24 hr % Vehicle Food Intake ([3]; dose 10 nmol/kg) | bioavailability ([4]; male, C57BL/6, mouse) | half-life ([4]; male, C57BL/6, mouse) | EC50 [5] | WT % glucose change 60 min ([6]; 10 nmol/kg) | WT % glucose change 60 min ([6]; 30 nmol/kg) | other results
1 | CC(C)C[C@H](NC(=O)[C@H](Cc1c[nH]c2ccccc12)NC(=O)[C@H](CCCNC(=N)N)NC(=O)[C@@H](NC(=O)[C@H](Cc1ccccc1)NC(=O)[C@H](CC(=O)O)NC(=O)[C@H](CCC(N)=O)NC(=O)[C@H](C)NC(=O)[C@H](CCCNC(=N)N)NC(=O)[C@H](CCCCNC(=O)COCCOCCNC(=O)COCCOCCNC(=O)CC[C@H](NC(=O)CCCCCCCCCCCCCCCCC(=O)O)C(=O)O)NC(=O)[C@@H](NC(=O)[C@H](CC(=O)O)NC(=O)[C@H](CC(C)C)NC(=O)[C@](C)(Cc1ccccc1)NC(=O)[C@H](CCCCN)NC(=O)[C@H](CO)NC(=O)[C@@H](NC(=O)[C@H](CC(=O)O)NC(=O)[C@H](CO)NC(=O)[C@@H](NC(=O)[C@H](Cc1ccccc1)NC(=O)[C@@H](NC(=O)CNC(=O)[C@H](CCC(N)=O)NC(=O)C(C)(C)NC(=O)[C@@H](N)Cc1c[nH]cn1)[C@@H](C)O)[C@@H](C)O)C(C)C)[C@@H](C)O)C(C)C)C(=O)N[C@@H](CC(C)C)C(=O)N[C@@H](CCC(=O)O)C(=O)NC(C)(C)C(=O)NCC(=O)O [Peptide 140] (H-H[Aib]QGTFTSDVSK[αMeF]LDTK([AEEA-AEEA-γGlu-C18 diacid])RAQDFVRWLLE[Aib]G-OH; N-terminus assumed) | 46.2% | 59.8% | 0.0227 nM | 4.0 | 65.4% | 102% | 6.4 h | 0.0464 nM | −32.1% | −29.0% | –
2 | CC(C)C[C@H](NC(=O)[C@H](Cc1c[nH]c2ccccc12)NC(=O)[C@H](CCC(N)=O)NC(=O)[C@@H](NC(=O)[C@H](Cc1ccccc1)NC(=O)[C@H](CC(=O)O)NC(=O)[C@H](CCCNC(=N)N)NC(=O)[C@H](C)NC(=O)[C@H](CCCNC(=N)N)NC(=O)[C@H](CCCCNC(=O)COCCOCCNC(=O)COCCOCCNC(=O)CC[C@H](NC(=O)CCCCCCCCCCCCCCCCC(=O)O)C(=O)O)NC(=O)[C@@H](NC(=O)[C@H](CC(=O)O)NC(=O)[C@H](CC(C)C)NC(=O)[C@](C)(Cc1ccccc1)NC(=O)[C@H](CCCCN)NC(=O)[C@H](CO)NC(=O)[C@@H](NC(=O)[C@H](CC(=O)O)NC(=O)[C@H](CO)NC(=O)[C@@H](NC(=O)[C@H](Cc1ccccc1)NC(=O)[C@@H](NC(=O)CNC(=O)[C@H](CCC(N)=O)NC(=O)C(C)(C)NC(=O)[C@@H](N)Cc1c[nH]cn1)[C@@H](C)O)[C@@H](C)O)C(C)C)[C@@H](C)O)C(C)C)C(=O)N[C@@H](CC(C)C)C(=O)N[C@@H](CCC(=O)O)C(=O)NC(C)(C)C(=O)NCC(=O)O [Peptide 188, H-Aib-Q-G-T-F-T-S-D-V—S-K-αMePhe-L-D-T-K-R-A-R-D-F-V-Q-W-L-L-E-Aib-G-acid] | 64% | 44.6% | 0.0208 nM | 3.3 | 60.7% and 49.8% | 98% | 7.9 h | 0.0347 nM | −23.2% | −31.3% | bioavailability [7]: 79%; half-life ([7]; iv): 67 h; half-life [8]: 71 h; 24 hr % Vehicle Food Intake ([3]; dose 1 nmol/kg): 99.9%; 24 hr % Vehicle Food Intake ([3]; dose 3 nmol/kg): 80.6%
3 | CC[C@H](C)[C@H](NC(=O)C(C)(C)NC(=O)[C@H](CCC(N)=O)NC(=O)[C@@H](NC(=O)[C@](C)(Cc1ccccc1)NC(=O)[C@H](CC(=O)O)NC(=O)[C@H](CCCCNC(=O)COCCOCCNC(=O)COCCOCCNC(=O)CC[C@H](NC(=O)CC[C@H](NC(=O)CCCCCCCCCCCCCCCCCCC(=O)O)C(=O)O)C(=O)O)NC(=O)[C@H](C)NC(=O)[C@H](C)NC(=O)[C@H](CCCNC(=N)N)NC(=O)[C@H](CO)NC(=O)[C@H](CC(=O)O)NC(=O)[C@H](CC(C)C)NC(=O)[C@](C)(Cc1ccccc1)NC(=O)[C@H](CCCCN)NC(=O)[C@H](CO)NC(=O)[C@@H](NC(=O)[C@H](CC(=O)O)NC(=O)[C@H](CO)NC(=O)[C@@H](NC(=O)[C@](C)(Cc1ccccc1)NC(=O)[C@H](CO)NC(=O)CNC(=O)[C@H](Cc1c[nH]cn1)NC(=O)C(C)(C)NC(=O)[C@@H](N)Cc1c[nH]cn1)[C@@H](C)O)C(C)C)C(C)C)C(=O)N[C@@H](C)C(=O)N[C@@H](CC(N)=O)C(=O)N[C@H](C(N)=O)[C@@H](C)O [Peptide 229, H-Aib-H-G-S-αMePhe-T-S-D-V—S-K-αMePhe-L-D-S-R-A-A-K (E-(O2Oc)-(O2Oc)-γE-γE-C20diacid) 20-D-αMePhe-V-Q-Aib-I-A-N-T-amide] (H-H[Aib]HGS[αMeF]TSDVSK[αMeF]LDSRAAK([AEEA-AEEA-γGlu-γGlu-C20 diacid])D[αMeF]VQ[Aib]IANT-NH2; N-terminus assumed) | – | – | – | – | – | – | – | – | – | – | remaining at 5 min, 125 µM [9]: 100%; remaining at 10 min, 125 µM [9]: 97%; remaining at 0.25 h, 125 µM [9]: 91%; remaining at 0.5 h, 125 µM [9]: 79%; remaining at 0.5 h ([10]; isolated enzyme neprilysin): 100%; remaining at 2 h ([10]; isolated enzyme neprilysin): 100%; remaining at 4 h ([10]; isolated enzyme neprilysin): 100%; remaining at 24 h ([10]; isolated enzyme neprilysin): 100%; % intact peptide over time [10]: 100%; remaining at 5 min, 3.3 mg/mL [11]: 60%; remaining at 10 min, 3.3 mg/mL [11]: 46%; remaining at 0.25 h, 3.3 mg/mL [11]: 33%; remaining at 0.5 h, 3.3 mg/mL [11]: 26%; bioavailability ([4]; mouse): 86%; half-life ([4]; mouse): 19 h
